# Reference: patent US10221163B2 (priority 2015, dated 2019)
# Where two headings read alike, the source gives them in different places.
# Assays:
# [1] = target: IMP-1 (Serratia marcescens, UniProt P52699); experiment: biochemical; type: biochemical; conditions: fluorescence assay, CCF2-FA substrate, 2 pM enzyme, 2 hours at 25° C.; read-out: IMP-1 IC50
# In short: (§1)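 Class B activity is measured in the presence of compound by fluorescence with CCF2-FA after a 2-hour incubation at 25° C. IC50 is taken from a 4-parameter fit of semi-logarithmic dose-response data.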
# [2] = target: NDM-1 (Klebsiella pneumoniae, UniProt C7C422); experiment: biochemical; type: biochemical; conditions: fluorescence assay, CCF2-FA substrate, 1 pM enzyme, 2 hours at 25° C.; read-out: NDM-1 IC50
# In short: as §1
# [3] = target: VIM-1 (Pseudomonas aeruginosa (strain ATCC 15692 / DSM 22644 / CIP 104116 / JCM 14847 / LMG 12228 / 1C / PRS 101 / PAO1), UniProt A0A0F7KYQ8); experiment: biochemical; conditions: CCF2-FA substrate, 30 pM enzyme, 2 hours at 25° C.
# In short: as §1
# [4] = tested on: Escherichia coli expressing NDM-1 (CLB30005, CLB30016); type: cell-based; conditions: NDM-1 strain, with imipenem 1 μg/ml, 95% inhibition of growth
# In short: (§2)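 Growth by absorbance after 22–24 h at 35°C defined the read-out, with imipenem fixed at 1 μg/ml alongside compound. Inocula came from overnight blood-agar colonies at 35°C, resuspended in saline and diluted 1:100 in 1.1×CAMHB.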
# [5] = tested on: Klebsiella pneumoniae expressing VIM-1 (IHMA599644); type: cell-based; conditions: VIM-1 strain IHMA599644, with imipenem 1 μg/ml, 95% inhibition of growth
# In short: as §2
# [6] = tested on: Serratia marcescens expressing IMP-1 (CL5741); type: cell-based; conditions: IMP-1 strain CL5741, with imipenem 1 μg/ml, 95% inhibition of growth
# In short: as §2
# [7] = tested on: Pseudomonas aeruginosa efflux+ (MB9798), IMP-1; type: cell-based; conditions: concentration restoring susceptibility to imipenem at 2 μg/mL in the presence of a class A, C, D serine β-lactamase inhibitor closely related to relebactam
# In short: (§3)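 Steps: add fixed imipenem and/or ceftazidime (usually CLSI breakpoint) and fixed AmpC-directed class A/C inhibitor to microbroth MIC wells; titrate MBL inhibitor; record concentration regaining susceptibility for each PAO1-derived strain; divide efflux+ by efflux− value.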
# [8] = tested on: Pseudomonas aeruginosa efflux− (MB9799), IMP-1; type: cell-based; conditions: concentration restoring susceptibility to imipenem at 2 μg/mL in the presence of a class A, C, D serine β-lactamase inhibitor closely related to relebactam
# In short: as §3
# [9] = tested on: Pseudomonas aeruginosa MB9798 vs MB9799; conditions: ratio MITC95 PA_9798/MITC95 PA_9799
# In short: as §3
# [10] = fluorescence assay, read-out: VIM-1 IC50
# Chain of IMP-1 (P52699 whole entry, looked up, species assumed): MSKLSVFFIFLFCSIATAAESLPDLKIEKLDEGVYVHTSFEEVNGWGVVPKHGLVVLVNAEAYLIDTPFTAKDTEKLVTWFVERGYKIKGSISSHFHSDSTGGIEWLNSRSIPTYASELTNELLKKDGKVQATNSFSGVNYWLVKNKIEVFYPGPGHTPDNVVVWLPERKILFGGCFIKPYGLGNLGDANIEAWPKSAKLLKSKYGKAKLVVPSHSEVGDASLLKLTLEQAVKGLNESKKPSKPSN
# Chain of NDM-1 (C7C422 whole entry, looked up, species assumed): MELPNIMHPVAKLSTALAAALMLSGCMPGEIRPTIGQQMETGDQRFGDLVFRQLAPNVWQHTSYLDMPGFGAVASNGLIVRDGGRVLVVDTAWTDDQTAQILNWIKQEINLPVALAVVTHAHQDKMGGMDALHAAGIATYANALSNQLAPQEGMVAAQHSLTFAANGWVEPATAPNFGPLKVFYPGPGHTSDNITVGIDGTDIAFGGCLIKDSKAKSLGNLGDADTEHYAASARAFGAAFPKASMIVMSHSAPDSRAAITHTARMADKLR
SMILES,IC50 [1],IC50 [2],"IC50 [3, 10]",Escherichia coli MITC95 [4],Klebsiella pneumoniae MITC95 [5],Serratia marcescens MITC95 [6],"P. aeruginosa expressing IMP-1, efflux + (MB9798) MITC95 [7]","P. aeruginosa expressing IMP-1, efflux − (MB9799) MITC95 [8]",Efflux ratio [9],"IC50 ([3]; VIM-1 IC50, fluorescence assay)"
NCCNS(=O)(=O)c1ccc(-c2cccc3[nH]c(CN)nc23)c(-c2nn[nH]n2)c1S(N)(=O)=O [Example 343],1.37 nM,0.195 nM,0.207 nM,0.7813 µM,0.7813 µM,0.7813 µM,0.7813 µM,0.7813 µM,1.00,–
"NCCNS(=O)(=O)c1ccc(-c2cccc3sc(CN)nc23)c(-c2nn[nH]n2)c1S(N)(=O)=O [Example 345, N^1-(2-aminoethyl)-4-(2-(aminomethyl)benzo[d]thiazol-4-yl)-3-(2H -tetrazol-5-yl)benzene-1,2-disulfonamide]",0.676 nM,0.193 nM,0.129 nM,0.5859 µM,0.7813 µM,0.7813 µM,0.7813 µM,0.7813 µM,1.00,–
NCCNS(=O)(=O)c1ccc(-c2cccc(C(=O)NC[C@H](O)CN)c2)c(-c2nn[nH]n2)c1S(N)(=O)=O [Example 346],3.65 nM,1.49 nM,–,1.563 µM,1.563 µM,1.563 µM,1.563 µM,0.7813 µM,2.00,0.467 nM
"NCCNS(=O)(=O)c1ccc(-c2ccc3ncn(CCN)c3c2)c(-c2nn[nH]n2)c1S(N)(=O)=O [Example 348, N^1-(2-aminoethyl)-4-(1-(2-aminoethyl)-1H-benzo[d]imidazol-6-yl)-3-(2H-tetrazol-5-yl)benzene-1,2-disulfonamide]",3.33 nM,1.47 nM,0.536 nM,1.563 µM,1.563 µM,1.563 µM,3.125 µM,0.7813 µM,4.00,–
"NCCNS(=O)(=O)c1ccc(-c2cccc(NC[C@@H](N)CO)c2)c(-c2nn[nH]n2)c1S(N)(=O)=O [Example 349, (R)-3′-((2-amino-3-hydroxypropyl)amino)-N4-(2-aminoethyl)-2-(2H-tetrazol-5-yl)-[1,1′-biphenyl]-3,4-disulfonamide]",5.65 nM,1.62 nM,0.433 nM,1.563 µM,1.563 µM,1.563 µM,1.563 µM,0.7813 µM,2.00,–
"NCCNS(=O)(=O)c1ccc(-c2cccc(NC[C@H](N)CO)c2)c(-c2nn[nH]n2)c1S(N)(=O)=O [Example 350, (S)-3′-((2-amino-3-hydroxypropyl)amino)-N4-(2-aminoethyl)-2-(2H-tetrazol-5-yl)-[1,1′-biphenyl]-3,4-disulfonamide]",4.4 nM,1.72 nM,0.412 nM,0.7813 µM,0.7813 µM,0.7813 µM,0.7813 µM,0.7813 µM,1.00,–
"NCCNS(=O)(=O)c1ccc(-c2cccc(NC[C@H](O)CN)c2)c(-c2nn[nH]n2)c1S(N)(=O)=O [Example 351, (R)-3′-((3-amino-2-hydroxypropyl)amino)-N4-(2-aminoethyl)-2-(2H-tetrazol-5-yl)-[1,1′-biphenyl]-3,4-disulfonamide]",3.55 nM,1.36 nM,–,0.7813 µM,1.563 µM,1.563 µM,1.563 µM,0.7813 µM,2.00,0.453 nM
"NCCNS(=O)(=O)c1ccc(-c2cccc(NC[C@@H](O)CN)c2)c(-c2nn[nH]n2)c1S(N)(=O)=O [Example 352, (S)-3′-((3-amino-2-hydroxypropyl)amino)N4-(2-aminoethyl)-2-(2H-tetrazol-5-yl)-[1,1′-biphenyl]-3,4-disulfonamide]",4.39 nM,1.41 nM,–,0.7813 µM,1.563 µM,1.563 µM,1.563 µM,0.7813 µM,2.00,0.379 nM
"NCCNS(=O)(=O)c1ccc(-c2cccc(-c3c[nH]c(N)n3)c2)c(-c2nn[nH]n2)c1S(N)(=O)=O [Example 353, 3′-(2-amino-1H-imidazol-4-yl)-N4-(2-aminoethyl)-2-(2H-tetrazol-5-yl)-[1,1′-biphenyl]-3,4-disulfonamide]",1.15 nM,0.259 nM,0.571 nM,0.3906 µM,1.563 µM,0.7813 µM,1.563 µM,0.7813 µM,2.00,–
"NCCNS(=O)(=O)c1ccc(-c2cccc(SCC(N)CO)c2)c(-c2nn[nH]n2)c1S(N)(=O)=O (stereo not drawn) [Example 354, 3′-((2-amino-3-hydroxypropyl)thio)-N4-(2-aminoethyl)-2-(2H-tetrazol-5-yl)-[1,1′-biphenyl]-3,4-disulfonamide]",0.453 nM,0.817 nM,0.108 nM,0.3906 µM,0.7813 µM,1.563 µM,1.563 µM,0.3906 µM,4.00,–
"NCCNS(=O)(=O)c1ccc(-c2cccc3ccc(N)nc23)c(-c2nn[nH]n2)c1S(N)(=O)=O [Example 355, N1-(2-aminoethyl)-4-(2-aminoquinolin-8-yl)-3-(2H-tetrazol-5-yl)benzene-1,2-disulfonamide]",0.2 nM,0.0509 nM,–,0.1953 µM,1.563 µM,0.7813 µM,0.7813 µM,0.7813 µM,1.00,0.141 nM
"NCCNS(=O)(=O)c1ccc(-c2cccc(SC[C@H](O)CN)c2)c(-c2nn[nH]n2)c1S(N)(=O)=O [Example 356, (R)-3′-((3-amino-2-hydroxypropyl)thio)-N4-(2-aminoethyl)-2-(2H-tetrazol-5-yl)-[1,1′-biphenyl]-3,4-disulfonamide]",1.41 nM,1.82 nM,–,0.7813 µM,0.7813 µM,0.7813 µM,0.7813 µM,0.3906 µM,2.00,0.244 nM
"NCCNS(=O)(=O)c1ccc(-c2cccc(SC[C@@H](O)CN)c2)c(-c2nn[nH]n2)c1S(N)(=O)=O [Example 357, (S)-5′-(3-amino-2-hydroxypropylthio)-N4-(2-aminoethyl)-2-(2H-tetrazol-5-yl)biphenyl-3,4-disulfonamide]",1.21 nM,1.26 nM,–,0.7813 µM,0.7813 µM,0.7813 µM,0.7813 µM,0.3906 µM,2.00,0.224 nM
